For data set [1] the following is noted: human plasma, oral dose of 200 mg in a capsule with food; cited from earlier work.
Data set [2] in a line: CX-157 solubility in candidate solvents, test tube method. It is filed as physicochemical. The note with it: organic solvent or mixture, thermodynamic from solid, CX-157 Form A. The procedure:
Ethanol, acetone and methylene chloride were selected and tested as candidate solvents. CX-157 solubility in the solvent was performed using a test tube method. A specific amount of CX-157 (Form A: disclosed in U.S. Pat. Pub. No. 2008/0009542 herein incorporated by reference in it entirety) was added into 1 mL test solvent and the sample was agitated vigorously by a Beadbeater (BB). If CX-157 was completely soluble in 1 mL of test solvent, additional CX-157 was added until excess solid was present. The solubility (mg/mL) of CX-157 was calculated by the amount (mass) of CX-157 added to the test solvent (1 mL). Acetone had the highest solubility of the solvents tested with a solubility of from about 60 mg/mL to about 80 mg/mL at room temperature.

Data set [3] is described as follows: Solubility of CX-157 in water (descriptive statement). In kind it is physicochemical.

In brackets after ≈: the same amount, converted by molar mass.

As to `NCCc1ccc(O)cc1` [tyramine], in data set [1], the time of peak concentration (Tmax) is no more than 1.25 h and the “time after dosing at which non-detectable levels observed” value is 3 to 4 h.

In the case of `O=S1(=O)c2ccc(F)cc2Oc2cc(OCC(F)(F)F)ccc21` [CX-157, 3-fluoro-7-(2,2,2-trifluoroethoxy)phenoxathiin 10,10-dioxide], the solubility in data set [2] (solvent acetone, at room temperature) is 60 to 80 mg/mL (≈ 172 to 230 mM); in data set [2] (solvent ethanol, at 60° C.), less than 10 mg/mL; in data set [2] (solvent methylene chloride, at room temperature) it was less than 20 mg/mL. In data set [3], the solubility in water result was “only sparing solubility”.

What is called Tmax is the time at which the peak concentration occurs. Usually solubility stands for the concentration that dissolves in the medium under given conditions.

These data come from patent US8313766B2, “Oral antidepressant formulation with reduced excipient load” (priority 2010, dated 2012).
